Laboratory results taken from patent publication US20150246087A1, “EXTRACTS AND THERAPEUTIC USES THEREOF” (REGENERA PHARMA LTD., priority 2012, published 2015).
Several values for one entry are separate records, joined by “and”; a condition that tells them apart may be missing. Identical values can stand only once.

Assays:
ARPE-19 cells = test: Neuronal-like differentiation of ARPE-19 retinal pigment epithelial cell cultures; type: cell-based, human; settings: 2-10% w/w in cottonseed oil, compared to vehicle control
Procedure: ARPE-19 cells (obtained from the American Type Culture Collection, ATCC) were plated in flat bottom 96 well tissue culture microplates (Costar) at a concentration of 2-5×10^3 cells per well (1-2.5×10^4 cells/mL) in a growth medium consisting of DMEM:Ham F-12, 1:1, supplemented with 10% Fetal Bovine Serum, […] glutamine, 100 units/mL penicillin and 100 μg/mL streptomycin. The cells were allowed to adhere to the plate surfaces overnight prior to treatment with either RPh-CY or RPh-SA.
RPh-CY and RPh-SA were prepared essentially as described in Examples 2 and 4 respectively, to provide 10% solutions in a carrier composed of grape seed oil, olive oil, cottonseed oil, and Mygliol® (Mygliol® 810 or Mygliol® 812). […]
The cultures were incubated in a 37° C., 5% CO2 incubator for 48 hr. The medium was then removed, the cultures washed twice with phosphate buffered saline (PBS), fixed with absolute methanol for 10 min and stained with Hemacolor® reagents (Boehringer Mannheim), which stain cells in a manner similar to Giemsa, and may be used in a quantitative cell viability assay (see Keisari, Y. A colorimetric microtiter assay for the quantitation of cytokine activity on adherent cells in tissue culture. J. Immunol. Methods 146, 155-161, 1992). […]

3T3 cells = test: Cytotoxicity in 3T3 cells (XTT kit); type: cell-based; settings: DMSO 10% control; 48 hr; single well of triplicate
Procedure: 3T3 cells (ATCC; CRL-1658) were seeded in a 96 well plate (4×10^3 cells per well), and 24 hr following cell adherence, cells were treated (in triplicate) with different concentrations (1-50 mg/ml) of the test items, or with the control items cottonseed oil alone, or 10% DMSO, or were left untreated. All treatments were introduced in a final volume of […] within a total volume of 100 μl/well. Cytotoxicity was determined 48 hr after additional of test items, using the XTT kit (Biological industries, Israel). Raw data was analyzed using Prism4 statistical software following blank reduction. The cottonseed oil vehicle treated control was used to calculate 100% viability and OD % was calculated.

Question: `CC(C)c1c(O)ccc2c1CC[C@H]1C(C)(C)CCC[C@]21C` [totarol] was tested. Which “change in ARPE-19 RPE cells (neurodifferentiation assay)” value (ARPE-19 cells) did it give?
Answer: induced no change

Question: How did the “OD at 450 (XTT)” value (3T3 cells) turn out when `C[S+](C)[O-]` [DMSO] was run?
Answer: 0.238 and 0.233 and 0.234
